Results reported in ChEMBL document CHEMBL1122060, “Synthesis and some pharmacological properties of Z-Tyr(SO3H)-Met-Gly-Trp-Met-Asp(Phe-NH2)-OH, a 32-beta-aspartyl analogue of cholecystokinin (pancreozymin) 27-33” (1982).
*1 amine or outer side, *2 acyl side, *3 side chain or, on linkers, in order; H or OH if unused. Where a SMILES comes first, the peptide text is derived from it. [ ]: non-standard residue; d: D form. βAsp = O=C(O)[C@H](CC(=O)[*:2])N[*:1]

Assays:
Type in all cases: functional
Felis catus [1] = species on record: Felis catus; experiment: Pancreatic response measured as optical density of the pancreatic juice secreted 30 minutes following injection of 1 ug and diluted to 25 mL with physiological saline.
Felis catus [2] = species on record: Felis catus; experiment: Pancreatic response measured as optical density of the pancreatic juice secreted 30 minutes following injection of 2 ug and diluted to 25 mL with physiological saline.
Felis catus [3] = species on record: Felis catus; experiment: Pancreatic response measured as optical density of the pancreatic juice secreted 30 minutes following injection of 0.5 ug and diluted to 25 mL with physiological saline.

**Q.** `CSCC[C@H](NC(=O)[C@H](Cc1c[nH]c2ccccc12)NC(=O)CNC(=O)[C@H](CCSC)NC(=O)[C@@H](N)Cc1ccc(O)cc1)C(=O)N[C@@H](CC(=O)N[C@@H](Cc1ccccc1)C(N)=O)C(=O)O` (H-YMGWM[βAsp]F-NH2) was tested. Which Pancreatic response (Felis catus [1]) did it give?
**A.** 0.97

**Q.** What about the Pancreatic response (Felis catus [2]) of the same compound?
**A.** 1.47

**Q.** What about the Pancreatic response (Felis catus [3]) of the same compound?
**A.** 0.46
